pIC50: −log10 of the molar value.
Tests used:
c-MET [1] = assay: c-MET protein degradation (Simple Western), Hs746T cells; format: cell-based, human; settings: Hs746T gastric cancer cells, c-MET exon 14 skipping mutant; 24 hours
Method: (§1) In order to assess the resolution of the compound of the present invention for c-MET expressed in cells, cells were dispensed in a 12-well plate at a concentration of 2×10^5 cells/well, and then gastric cancer cell lines were treated with samples for 24 hours and lung cancer cell lines were treated for 48 hours. Cell lysates were collected using a scraper on ice, centrifuged at 4° C. 15,000 rpm for 30 min to obtain a protein-containing supernatant. Protein expression was then measured using the Simple Western Automated Western Blot System Abby instrument using 3 μg of protein for each sample. SDS and heat-induced denaturation proteins were separated by molecular weight, attached to capillary, reacted with anti-c-MET or anti-GAPDH antibodies, which are primary antibodies, and then reacted with HRP-conjugated secondary antibodies, and analyzed the protein expression signal with compass software. Protein expression was normalized based on the expression value of GAPDH, and protein development in each sample was measured as a percentage (%) based on 100% of samples treated with 0.1% DMSO carriers, and DC50 (concentration of a compound where 50% protein inhibition is achieved) was calculated from the change in protein expression amount due to compound treatment.

c-MET [2] = assay: c-MET protein degradation (Simple Western), SNU-638 cells; format: cell-based, human; settings: SNU-638 gastric cancer cells, c-MET overexpressing; 24 hours
Method: as §1

c-MET [3] = assay: c-MET protein degradation (Simple Western), EBC-1 cells; format: cell-based, human; settings: EBC-1 lung cancer cells, c-MET overexpressing; 48 hours
Method: as §1

c-MET [4] = assay: c-MET protein degradation (Simple Western), MKN-45 cells; format: cell-based, human; settings: MKN-45 gastric cancer cells, c-MET overexpressing; 24 hours
How it was run: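 Cells at 2×10^5 cells/well exposed to compound for 24 h (gastric lines) or 48 h (lung lines). Lysates (3 μg protein) probed for c-MET by capillary Simple Western, normalized to GAPDH and expressed as % of 0.1% DMSO control. DC50 is the concentration giving 50% protein reduction.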

SNU-638 = assay: cell viability / antiproliferative activity (WST-8), SNU-638 cells; format: cell-based, human; settings: SNU-638 gastric cancer cells, 72 hours
Method: (§2) c-MET overexpressing human gastric cancer cell lines [MKN45] and [SNU638] were cultured in RPMI medium with 10% fetal bovine serum, penicillin (100 U/ml), and streptomycin (100 mg/ml), and c-MET exon 14 skipping mutant human gastric cancer cell lines [Hs746T] were cultured in DMEM media. The c-MET overexpressing human lung cancer cell line EBC-1 was cultured in MEM media with the addition of 10% fetal bovine serum, penicillin (100 U/ml), and streptomycin (100 mg/ml). […] The compound synthesized in accordance with the present invention was prepared with a raw material solution of 10 mM dissolved in DMSO (dimethyl sulfoxide), and was sequentially diluted and processed.
(§3) In order to observe the inhibitory activity on cell growth, cells were dispensed in a 96-well plate at a concentration of 5,000 cells/well, and then treated with the compound prepared at various concentrations for 72 hours. The viability of the cells was calculated using GraphicPad Prism 8.0 software by adding 10 ml per well of WST-8 (water soluble tetrazolium salt) sample, which reacts with dehydrogenase present in the electron transport system of mitochondria to produce formazon, incubated for 2 hours, and measured absorbance at 450 nm.

EBC-1 = assay: cell viability / antiproliferative activity (WST-8), EBC-1 cells; format: cell-based, human; settings: EBC-1 lung cancer cells, 72 hours
Method: as §2, §3

MKN-45 = assay: cell viability / antiproliferative activity (WST-8), MKN-45 cells; format: cell-based; settings: Homo sapiens; MKN-45 gastric cancer cells; 72 hours
Method: as §2, §3

Compound | DC50 (c-MET [1]) | DC50 (c-MET [2]) | DC50 (c-MET [3]) | DC50 (c-MET [4]) | pIC50 (SNU-638) | pIC50 (EBC-1) | pIC50 (SNU-638; Homo sapiens) | pIC50 (EBC-1; Homo sapiens) | pIC50 (MKN-45)
N#Cc1cccc(-c2ccc(=O)n(Cc3cccc(-c4ncc(N5CCN(CC6CCN(c7ccc(NC8CCC(=O)NC8=O)cc7F)CC6)CC5)cn4)c3)n2)c1 (centres unmarked) [ICT-0001402] | < 100 nM | < 100 nM | < 100 nM | – | – | – | – | – | –
Cc1nn(C2CCC(=O)NC2=O)c(=O)c2ccc(N3CCN(CCN4CCC(COc5cnc(-c6cccc(Cn7nc(-c8cccc(C#N)c8)ccc7=O)c6)nc5)CC4)CC3)cc12 (centres unmarked) [ICT-0001277, 3-(1-{[3-(5-{[1-(2-{4-[2-(2,6-dioxopiperidin-3-yl)-4-methyl-1-oxo-1,2-dihydrophthalazine-6-yl]piperazine-1-yl}ethyl)piperidine-4-il]methoxy}pyrimidine-2-yl)phenyl]methyl}6-oxo-1,6-dihydropyridazine-3-yl)benzonitrile] | < 100 nM | < 100 nM | < 100 nM | < 100 nM | – | – | – | – | –
3-((3-fluoro-4-(4-(2-(4-(4-(4-(2-(2-((S)-2-((5-(1-methyl-1H-pyrazole-4-yl)-1H-[1,2,3]triazolo[4,5-b]pyrazine-1-yl)methyl)morpholino)pyrimidine-5-yl)benzyl)piperazine-1-il)acetyl)piperazine-1-il)phenyl)amino)piperidine-2,6-dione [ICT-0001379] | – | < 100 nM | < 100 nM | – | > 7.00 | > 7.00 | – | – | –
Cc1nn(C2CCC(=O)NC2=O)c(=O)c2ccc(N3CCN(c4ccc(NC(=O)CN5CCC(COc6cnc(-c7cccc(Cn8nc(-c9cccc(C#N)c9)ccc8=O)c7)nc6)CC5)cc4)CC3)cc12 (centres unmarked) [ICT-0001207] | < 100 nM | < 100 nM | < 100 nM | < 100 nM | – | – | – | – | –
N#Cc1cccc(-c2ccc(=O)n(Cc3cccc(-c4ncc(OCC5CCN(CCOCCOCCOCC#Cc6cccc7c(=O)n(C8CCC(=O)NC8=O)ncc67)CC5)cn4)c3)n2)c1 (centres unmarked) [ICT-0001307] | – | – | – | – | – | – | > 7.00 | – | –
N#Cc1cccc(-c2ccc(=O)n(Cc3cccc(-c4ncc(OCC5CCN(Cc6cn(C7CCC(=O)NC7=O)nn6)CC5)cn4)c3)n2)c1 (centres unmarked) [ICT-0001384, 3-{1-[(3-{5-[(1-{[1-(2,6-dioxopiperidine-3-yl)-1H-1,2,3-triazole-4-yl]methyl}piperidine-4-il)methoxy]pyrimidine-2-yl}phenyl)methyl]-6-oxo-1,6-dihydropyridazine-3-yl}benzonitrile] | – | > 1000 nM | < 100 nM | – | – | – | 6.00 to 7.00 | > 7.00 | –
N#Cc1cccc(-c2ccc(=O)n(Cc3cccc(-c4ncc(OCC5CCN(CCCCCc6ccc7c(=O)n(C8CCC(=O)NC8=O)ncc7c6)CC5)cn4)c3)n2)c1 (centres unmarked) [ICT-0001304] | – | – | – | – | – | – | > 7.00 | – | –
Cc1nn(C2CCC(=O)NC2=O)c(=O)c2ccc(N3CCN(C4CCN(CCN5CCC(COc6cnc(-c7cccc(Cn8nc(-c9cccc(C#N)c9)ccc8=O)c7)nc6)CC5)CC4)CC3)cc12 (centres unmarked) [ICT-0001317] | – | – | – | – | – | – | > 7.00 | – | –
Cc1nn(C2CCC(=O)NC2=O)c(=O)c2cc(N3CCN(CCC(=O)N4CCC(COc5cnc(-c6cccc(Cn7nc(-c8cccc(C#N)c8)ccc7=O)c6)nc5)CC4)CC3)ccc12 (centres unmarked) [ICT-0001215] | – | < 100 nM | < 100 nM | < 100 nM | – | – | > 7.00 | > 7.00 | > 7.00
N#Cc1cccc(-c2ccc(=O)n(Cc3cccc(-c4ncc(OCC5CCN(CC(=O)N6CCN(c7ccc(NC8CCC(=O)NC8=O)c(F)c7)CC6)CC5)cn4)c3)n2)c1 (centres unmarked) [ICT-0001437, 3-(1-(3-(5-((1-(1-(2-(4-((2,6-dioxopiperidine-3-yl)amino)-3-fluorophenyl)piperazine-1-yl)-2-oxoethyl)piperidine-4-yl)methoxy)pyrimidine-2-yl)benzyl)6-oxo-1,6-dihydropyridazine-3-yl)benzonitrile] | – | < 100 nM | < 100 nM | – | – | – | > 7.00 | > 7.00 | –
